Experimental data reported in patent US6908628B2, “Disinfectant and antiseptic composition” (priority 2001, dated 2005).

Tests used:
Format in all cases: cell-based
[1] = system: P. aeruginosa; assay: MIC in a solid medium; conditions: expressed as dilution of the product
Excerpt: (§1) This is shown by means of its MIC (minimum inhibiting concentration).
(§2) A MIC is obtained in a solid medium against S. aureus and P. aeruginosa.

[2] = system: S. aureus; assay: MIC in a solid medium; conditions: expressed as dilution of the product
Excerpt: as §1, §2

[3] = system: S. aureus, S. epidermidis, E. faecalis, E. coli, K. pneumoniae, E. cloacae, P. mirabilis, Acinetobacter baumanii, P. aeruginosa, C. albicans, Mycobacterium …; assay: Bactericidal effect on endodontic files, whole panel of Example 1; conditions: 20 minutes
Procedure: For the determination of these three effects, the methods described by Herruzo et al in 1999 were used (Rev Stomatol Chir maxillofac 1999; 100: 299-305), which may be resumed as follows: • a) Bactericidal effect on instruments difficult to disinfect: No. 25 endodontic files.
These files are contaminated in a micro-organism for 30 minutes and after drying for 15 minutes in an oblique position, they are introduced in the disinfectant for 5, 10, 15, 20, etc. minutes. Afterwards, they are removed and submerged in a tube with glass beads and a disinfectant inhibitor (broth plus 6% Tween 80, plus 0.5% sodium bisulphite and 0.5% sodium thiosulphate). The tubes are then stirred for 1 minute to detach the surviving micro-organisms, and samples are cultured over the entire surface of agar plates with the culture medium suitable for the tested micro-organism (Müeller-Hinton or Saboureaud-dextrose for yeasts or HIB for mycobacteria, etc.). […] It is recorded if there was any deterioration or not and the time at which it occurred. […]

[4] = system: spores of B subtilis; assay: Sporicidal effect on commercial cellulose germ holder; conditions: reference disinfectant as such; 10 minutes
Procedure: In this case, another more demanding test was used, since the sporicidal effect was assessed. It is similar to the bactericidal effect, but instead of contaminated instruments, a commercial, cellulose germ holder was used, impregnated in spores. In fact, this is the biological control used in sterilisation by ethylene oxide: spores of B subtilis, at a concentration guaranteed by the manufacturer (3M) and which exceed a million spores per germ holder. The rest was similar to that described in the endodontic file method.

Row | Compound | MIC (minimum inhibiting concentration) [1] | MIC (minimum inhibiting concentration) [2] | bactericidal effect against Mycobacterium [3] | reduction of the spore inoculum [4] [log 10]
1 | [H]/N=C(\N/C(=N/[H])NCCCCCCNC(=N)NC(=N)Nc1ccc(Cl)cc1)Nc1ccc(Cl)cc1 [Clo, Chlorhexidine] | 1/2560 | 1/20480 |  | 
2 | O=CCCCC=O [2% glutaraldehyde, glutaraldehyde] |  |  | did not completely destroyed the inoculum | 1.5
3 | Didecyl-metyl-polyoxy-ethyl-ammonium propionate | 1/160 | 1/20480 |  | 
